Experimental data taken from PubChem BioAssay (NCI).
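Interpolation was linear, between the two tested concentrations surrounding the appropriate level; five concentrations were tested over 48 hours in 96-well plates. TGI: total growth inhibition.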

Assays:
Assay in all cases: growth of human tumour cells (NCI), 48 h
[1] = test system: SF-539 CNS
[2] = test system: RXF 393 renal
[3] = test system: PC-3 prostate
[4] = test system: A549 NSCLC
[5] = test system: SN12C renal
[6] = test system: EKVX NSCLC
[7] = test system: HL-60(TB) leukemia
[8] = test system: SK-MEL-2 melanoma
[9] = test system: HCC-2998 colon
[10] = test system: IGROV1 ovarian
[11] = test system: SF-268 CNS
[12] = test system: ACHN renal
[13] = test system: SW-620 colon
[14] = test system: KM12 colon
[15] = test system: DU-145 prostate
[16] = test system: MOLT-4 leukemia
[17] = test system: TK-10 renal
[18] = test system: OVCAR-5 ovarian
[19] = test system: COLO 205 colon
[20] = test system: CCRF-CEM leukemia

SMILES	TGI [1] [µM]	TGI [2] [µM]	TGI [3] [µM]	TGI [4] [µM]	TGI [5] [µM]	TGI [6] [µM]	TGI [7] [µM]	TGI [8] [µM]	TGI [9] [µM]	TGI [10] [µM]	TGI [11] [µM]	TGI [12] [µM]	TGI [13] [µM]	TGI [14] [µM]	TGI [15] [µM]	TGI [16] [µM]	TGI [17] [µM]	TGI [18] [µM]	TGI [19] [µM]	TGI [20] [µM]
COC(=O)c1cc(C)ccc1/C=C1\Cc2cc(C)c(C)cc2C1=O	> 100	> 100	> 100	> 100	> 100	> 100	> 100	> 100	> 100	> 100	> 100	> 100	> 100	> 100	> 100	> 100	> 100	> 100	–	–
CS(=O)(=O)c1nc(N)nc2nc[nH]c12	> 100	> 100	–	> 100	> 100	> 100	> 100	> 100	> 100	> 100	> 100	> 100	> 100	> 100	–	> 100	> 100	> 100	> 100	> 100
COc1cc(-c2c[nH]c3ccccc23)nc(-c2c[nH]c3ccccc23)n1	19.8	–	9.06	12.5	–	19	12.9	16.2	13	13.6	30.7	8.46	20.3	16.2	23.9	15.3	20.6	22.1	20.8	3.08
N#CN=Nc1cc(Cl)c(N=NC#N)cc1Cl	> 100	> 100	–	> 100	> 100	> 100	> 100	> 100	> 100	> 100	> 100	> 100	> 100	> 100	–	> 100	> 100	> 100	> 100	92.2
CCc1cc(-c2nsc(=O)o2)c(S(=O)(=O)CC)s1	> 100	–	85.1	> 100	> 100	> 100	12	> 100	> 100	> 100	> 100	> 100	> 100	> 100	> 100	–	> 100	> 100	> 100	> 100
Cn1c(=O)n(-c2c3ccccc3c(Cl)c3ccccc23)n(C(C)(C)C)c1=O	> 100	–	> 100	> 100	> 100	> 100	> 100	> 100	> 100	> 100	> 100	> 100	> 100	> 100	> 100	> 100	> 100	> 100	> 100	> 100
CCCCOC(=O)CN1C(=O)c2ccccc2C1=O	> 100	> 100	–	> 100	–	> 100	> 100	> 100	> 100	> 100	> 100	> 100	> 100	> 100	–	> 100	> 100	> 100	> 100	–
NC(=S)SCCC(=O)O	> 100	–	> 100	> 100	> 100	> 100	> 100	> 100	> 100	> 100	> 100	> 100	> 100	> 100	> 100	> 100	> 100	> 100	> 100	> 100
Cc1ccc(SCC(OCn2cnc3c(N)ncnc32)[C@H](C)F)cc1 (stereo partly drawn)	> 100	–	> 100	> 100	> 100	–	> 100	> 100	> 100	> 100	> 100	> 100	> 100	> 100	> 100	> 100	> 100	> 100	> 100	> 100
CC1(C)S[C@@H]2[C@H](NC(=O)CCC[C@@H](N)C(=O)O)C(=O)N2[C@H]1C(=O)O	> 50	> 50	–	> 50	> 50	> 50	> 50	> 50	> 50	> 50	> 50	–	> 31.6	> 50	–	> 50	–	> 28.1	> 50	> 50
O=[N+]([O-])C(/C(Cl)=C(/Cl)N1CCCCC1)=C1\NCCO1	> 100	–	> 100	> 100	> 100	> 100	–	> 100	> 100	–	> 100	> 100	> 100	> 100	> 100	> 100	–	> 100	> 100	> 100
COc1cc(CC2CCc3nc(N)nc(N)c3C2)cc(OC)c1OC (stereo not drawn)	> 60.4	11.9	> 100	> 100	> 100	> 100	–	> 56.6	> 46.9	98.2	13.4	> 45.6	> 100	> 100	–	> 100	> 100	> 100	21.6	–
O=C1CN(c2cccc(C(F)(F)F)c2)C(=O)CN1NCNN1CC(=O)N(c2cccc(C(F)(F)F)c2)CC1=O	> 100	–	> 100	> 100	> 100	> 100	> 100	–	> 100	> 100	> 100	> 100	> 100	> 100	–	> 100	> 100	> 100	> 100	> 100
